pEC50: −log10 of the molar value. ≈ marks a conversion by molar mass, not a printed value.
Legend:
[1] = target: T1, Cathepsin B (Homo sapiens, UniProt P07858); test: Cathepsin B Inhibitor Screening Assay Kit (fluorescence); format: biochemical; details: Cathepsin B 0.4 ng/group, 50 μL reaction; read-out: half maximal effective concentration (EC50) against Cathepsin B protease activity
T1 construct: purchased BPS BIOSCIENCE 79590
Procedure: In the biochemical test, the Cathepsin B Fluorescence Assay Kit (Cathepsin B Inhibitor Screening Assay Kit, BPS BIOSCIENCE, 79590) was used in the test method. According to the manufacturer's manual, the inhibition activity was measured through continuous kinetic analysis, the samples containing Cathepsin B were reacted with a fluorescent substrate in the mixing, and the measured fluorescence (λex=360 nm, λem=460 nm) readings were used. The E64 protease inhibitor was used as a positive control. The experiment was conducted in a 50 μL reaction system, with a single reaction dose of Cathepsin B at 0.4 ng/group, the E64 protease inhibitor were used as a positive control. The inhibitory impact of various concentrations of Anisomelic acid (0.5, 1, 2.5, 5, 10, 20, and 30 μM) against Cathepsin B protease activity was examined. The significant inhibition of Anisomelic acid against Cathepsin B protease activity was found in a dose-dependent manner.

[2] = target: Cathepsin L (Homo sapiens, UniProt P07711); test: Cathepsin L Inhibitor Screening Assay Kit (fluorescence); format: biochemical; details: Cathepsin L 0.4 ng/group, 50 μL reaction; read-out: half maximal effective concentration (EC50) against Cathepsin L protease activity
Cathepsin L, sequence (P07711 114-333): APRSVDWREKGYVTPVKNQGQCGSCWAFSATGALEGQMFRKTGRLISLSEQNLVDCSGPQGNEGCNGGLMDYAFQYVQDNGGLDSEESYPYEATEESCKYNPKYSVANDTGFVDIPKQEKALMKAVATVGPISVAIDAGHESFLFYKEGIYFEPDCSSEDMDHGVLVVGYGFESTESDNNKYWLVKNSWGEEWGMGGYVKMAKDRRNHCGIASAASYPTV
Procedure: The Cathepsin L Fluorescence Assay Kit (Cathepsin L Inhibitor Screening Assay Kit, BPS BIOSCIENCE, 79591) was used in the biochemical test method. According to the manufacturer's manual, the inhibition activity was measured through continuous kinetic analysis, the samples containing Cathepsin L were reacted with a fluorescent substrate in mixing, and the measured fluorescence (λex=360 nm, λem=460 nm) readings were used. The E64 protease inhibitor was used as a positive control. The experiment was conducted in a 50 μL reaction system, with a single reaction dose of Cathepsin L at 0.4 ng/group, the E64 was used as the positive control of inhibition. The inhibitory impact of various concentrations of Anisomelic acid (0.5, 1, 2.5, 5, 10, 20, and 30 μM) against Cathepsin L protease activity was examined. As shown in the right graph of FIG. 5B, the significant inhibition of Anisomelic acid against Cathepsin L protease activity was found in a dose-dependent manner.

[3] = target: T2, TMPRSS2 (Homo sapiens, UniProt O15393); test: TMPRSS2 Fluorogenic Assay Kit; format: biochemical; details: TMPRSS2 150 ng/group, 50 μL reaction; read-out: half maximal effective concentration (EC50) against TMPRSS2 protease activity
T2 construct: purchased BPS BIOSCIENCE 78083
T2 sequence (O15393 whole entry): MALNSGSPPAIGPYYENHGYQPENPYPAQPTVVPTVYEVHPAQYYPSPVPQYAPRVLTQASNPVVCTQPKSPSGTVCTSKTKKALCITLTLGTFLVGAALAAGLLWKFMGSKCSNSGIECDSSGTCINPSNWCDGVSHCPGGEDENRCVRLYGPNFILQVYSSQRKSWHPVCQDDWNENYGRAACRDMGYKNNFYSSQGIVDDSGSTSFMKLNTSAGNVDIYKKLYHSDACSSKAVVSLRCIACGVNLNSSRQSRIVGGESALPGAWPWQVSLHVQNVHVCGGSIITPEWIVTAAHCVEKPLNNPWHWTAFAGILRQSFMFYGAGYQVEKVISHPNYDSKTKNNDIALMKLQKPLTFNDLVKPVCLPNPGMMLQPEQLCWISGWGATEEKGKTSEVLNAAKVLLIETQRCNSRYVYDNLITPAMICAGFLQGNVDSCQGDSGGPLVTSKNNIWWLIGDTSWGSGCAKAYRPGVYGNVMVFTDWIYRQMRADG
Procedure: In the biochemical experiments, TMPRSS2 Fluorescence Assay Kit (TMPRSS2 Fluorogenic Assay Kit, BPS BIOSCIENCE, 78083) was used in the test method. Inhibitory activity was measured by sequential kinetic analysis according to the manufacturer's manual, the inhibition activity was measured by using continuous kinetic analysis, the samples containing TMPRSS2 were reacted with a fluorescent substrate in a mixing, and a fluorescence (λex=383 nm, λem=455 nm) readings were used. Camostat protease inhibitor was used as a positive control. The experiment was performed in a 50 μL reaction system, the single reaction dose of TMPRSS2 was 150 ng/group, and 10 μM Camostat protease inhibitor was used as a positive control. The effect of Anisomelic acid on the inhibition of TMPRSS2 protease activity was examined by tested various concentrations of Anisomelic acid (0.5, 1, 2.5, 5, 10, 20 and 30 μM). A significant inhibition of Anisomelic acid against TMPRSS2 protease activity was found in a dose-dependent manner.

[4] = target: T3, SARS-CoV-2 main protease (Mpro) (Severe acute respiratory syndrome coronavirus 2, UniProt P0DTD1); format: biochemical; details: read-out: half maximal effective concentration (EC50) against Mpro activity
T3 construct: a recombinant 2019-nCoV 3CL protease protein (Elabscience bio Inc) was used; purchased Elabscience bio Inc

[5] = system: SARS-CoV-2 pseudovirus Wuhan D614; test: microbe, parasite or virus in culture; format: cell-based
[6] = system: SARS-CoV-2 pseudovirus South Africa B.1.351; test: microbe, parasite or virus in culture; format: cell-based
[7] = system: SARS-CoV-2 pseudovirus Brazil P.1; test: microbe, parasite or virus in culture; format: cell-based
[8] = system: SARS-CoV-2 pseudovirus India B.1.617.1; test: microbe, parasite or virus in culture; format: cell-based
[9] = system: SARS-CoV-2 pseudovirus Uganda A23.1; test: microbe, parasite or virus in culture; format: cell-based
[10] = system: SARS-CoV-2 pseudovirus Nigeria B.1.525; test: microbe, parasite or virus in culture; format: cell-based
[11] = system: SARS-CoV-2 pseudovirus California B.1.429; test: microbe, parasite or virus in culture; format: cell-based
[12] = system: SARS-CoV-2 pseudovirus New York B.1.526; test: microbe, parasite or virus in culture; format: cell-based
[13] = system: SARS-CoV-2; details: mouse, in vivo
[14] = Severe acute respiratory syndrome-related coronavirus, Huh-7, read-out: IC50 inhibiting infection

Compound	IC50 inhibiting infection [5] [µg/mL]	IC50 inhibiting infection [6] [µg/mL]	IC50 inhibiting infection [7] [µg/mL]	IC50 inhibiting infection [8] [µg/mL]	IC50 inhibiting infection [9] [µg/mL]	IC50 inhibiting infection [10] [µg/mL]	IC50 inhibiting infection [11] [µg/mL]	IC50 inhibiting infection [12] [µg/mL]	changes in body weight of the mice [13]	further results
C=C1C(=O)OC2/C=C(/C)CC/C=C(\C(=O)O)CC/C=C(\C)CCC12 (centres unmarked) [Anisomelic acid]	3.50 (≈ 10.6 µM)	27.55 (≈ 83.4 µM)	0.12 (≈ 0.363 µM)	10.09 (≈ 30.5 µM)	15.53 (≈ 47 µM)	14.36 (≈ 43.5 µM)	8.47 (≈ 25.6 µM)	8.86 (≈ 26.8 µM)	basically similar	pEC50 [1]: 5.37; pEC50 [2]: 5.43; pEC50 [3]: 5.19; pEC50 [4]: 5.01; changes in the titers of coronavirus infection in the lungs of mice [13]: better prevention and control effects
CCC(CC)COC(=O)[C@H](C)N[P@](=O)(OC[C@H]1O[C@@](C#N)(c2ccc3c(N)ncnn23)[C@H](O)[C@@H]1O)Oc1ccccc1 [Remdesivir, reference compound]									basically similar	IC50 [5, 14]: 2.96 µg/mL (≈ 4.91 µM); IC50 [6, 14]: 27.2 µg/mL (≈ 45.2 µM); IC50 [7, 14]: 13.8 µg/mL (≈ 22.8 µM); IC50 [8, 14]: 11.9 µg/mL (≈ 19.8 µM); IC50 [9, 14]: 7.63 µg/mL (≈ 12.7 µM); IC50 [10, 14]: 10.3 µg/mL (≈ 17.1 µM); IC50 [11, 14]: 15.9 µg/mL (≈ 26.4 µM); IC50 [12, 14]: 15 µg/mL (≈ 24.9 µM)
C=C1C(=O)O[C@@H]2/C=C(\C)C[C@H]3C=C(CC/C=C(\C)CC[C@@H]12)C(=O)O3 [Ovatodiolide]	4.08 (≈ 12.4 µM)	15.42 (≈ 47 µM)	7.00 (≈ 21.3 µM)	15.27 (≈ 46.5 µM)	6.72 (≈ 20.5 µM)	8.24 (≈ 25.1 µM)	12.09 (≈ 36.8 µM)	11.35 (≈ 34.6 µM)	basically similar	
